Experimental data published in patent US20230277503A1, “COMPOSITIONS AND METHODS TO REDUCE PATHOGENESIS” (priority 2017, published 2023).
“Also recorded” adds a separate entry of the source. Where two headings read alike, the source gives them in different places. Marks after values point to notes of the source that are not given here.

Assays:
HSV-1 RE = assay: Murine model of HSV-1 (RE) chronic herpetic keratitis; type: in vivo, BALB/c mice; settings: for signs of disease, including stromal opacity and corneal neovascularization: acute herpetic keratitis stage; for weight loss associated with HSV-1 ocular infection: day 5 to 11 post infection; for ocular histology (H&E, central cornea): day 15 post infection; for # Deceased / # Eyes showing signs of disease / Clinically clear eyes: day 15 post-infection, topical drops 4x per day for 8 days, (R)-DOI 500 μM; for stromal opacity score: following day 8 post infection; for clinical scores (slit lamp score, corneal opacity, neovascularization): up to 15 DPI, versus control BSS
Excerpt: (§1) 16 BALB/c mice, which can respond with a TH2 biased immune response, were randomly sorted into 3 treatment arms: 1) Ophthalmic Balanced Saline Solution diluted 1:1 in PBS (BSS+PBS) treated (6 mice); 2) DOI treated (XTPFDOI) (5 mice); 3) 1.0% TFT (TFT+PBS) (5 mice). Animals were anesthetized with […]:ketamine and both eyes were scarified in a cross hatch pattern using a curved needle. Immediately following ocular scarification, eyes were inoculated with a 3 microliter drop containing 10,000 plaque forming units (PFU) of Herpes Simplex Virus type 1 (HSV-1) RE strain. The next morning following infection animals were treated with the respective treatment as assigned within their treatment arm. Treatments were applied topically to the eye in a 4 microliter drop. Drops were applied 4× daily from 9 am to 5:30 pm starting immediately following clinical scoring. Treatments were applied for the first 8 days post infection and then stopped on day 8. Clinical scoring was done using a slit lamp biomicroscope magnified at 16× on the days indicated by a single individual masked to the drug treatment parameters. Slit lamp biomicroscopy also included fluorescein exclusion labeling of the corneal surface following scoring of all clinical parameters. Each eye was scored independently. Clinically clear eyes were scored as such if no apparent signs of disease were present in any clinical parameter during the chronic phase.
At day 15 post infection, a stage that will be during chronic immune-associated disease with no virus present, animals were euthanized and the eyes were removed for histology. Random representative eyes were prepared by taking sections through the central cornea and processed by H&E histology for visualization. Sections were examined microscopically and photographed across the central cornea.
BALB/c eyes were scarified and infected with HSV-1 (RE), an HSV-1 strain that causes herpetic keratitis in 100% of ocular infections^31. Starting 24 hours post-infection, topical drops were applied in a masked fashion 4× per day for 8 days. Individual clinical parameters were monitored and scored in a masked fashion for 15 days.
BALB/c eyes were scarified and infected with 10,000 PFU per eye of HSV-1 RE, an HSV-1 strain that causes herpetic keratitis in 100% of ocular infections.
Referring to FIGS. 37-42, for example, individual clinical parameters were monitored and scored in a masked fashion for 15 days post infection. Parameters included weight, death, epiphora, blepharitis, corneal epithelium, corneal neovascularization, stromal opacity, scleral inflammation and fluorescently visualized slitlamp biomicroscopy.
24 hours post infection, topical drops were applied in a masked fashion 4× per day at 4 ul per drop to the surface of the eye. Topical drops consisted of 1% Trifluorthymidine (1% TFT; Viroptic), Ophthalmic Balanced Salt Solution (BSS), or (R)-DOI in Ophthalmic BSS.
as §1, with “preferentially” for “can”, “(BSS)” for “diluted 1:1 in PBS (BSS+PBS)”, “((R)-DOI)” for “(XTPFDOI)”, “TFT” for “TFT (TFT+PBS)”, “Slit lamp biomicroscopy also included fluorescein exclusion labeling of the corneal surface following scoring of all clinical parameters. Each eye was scored independently. Clinically clear eyes were scored as such if no apparent signs of disease were present in any clinical parameter during the chronic phase.” left out

[1] = system: human microvascular endothelial cells (HMEC); assay: HMEC spheroid vascular-like tubule outgrowth; type: cell-based; settings: matrigel with VEGF; serotonin 50 nM, R-DOI 100 nM, TCB2 500 nM
Procedure: HMEC cells were cultured in specially coated U-shaped bottom 96 well plates in order to form tissue-like 3 dimension spheroids. Spheroids were subsequently implanted into wells that contained matrigel basement membranes supplemented with vascular endothelial growth factor (VEGF) or starved (Starvation control-no VEGF). Culture media was treated with either serotonin (50 nM), (R-DOI (100 nM) or TCB2 (500 nM) outgrowth from the spheroids of vascular-like structures was monitored microscopically.

[2] = system: VEGF-mediated neovascularization from aortic rings; assay: Aortic ring neovascularization assay; type: cell-based, mice; settings: for blood vessel sprouting, branching and formation from aortic rings: VEGF-containing endothelial growth medium, matrigel
Procedure: Referring to FIG. 34 for example, the aortas from sacrificed mice are removed, cleaned, and dissected into 1 mm tubule sections. These aortic rings are implanted into matrigel basement membrane and incubated in endothelial cell growth medium containing vascular endothelial growth factor. Aortic rings are continuously incubated in the presence of 5HT2A receptor agonists and antagonists at the indicated concentrations and examined by microscopy daily. Extensive sprouting, branching and networking of new blood vessels can be observed in control aortic rings, where multiple images needed to be stitched together in order to capture the extensive blood vessel network formed.

[3] = system: human microvascular endothelial cells; assay: Endothelial tubule formation assay; type: cell-based; settings: geltrex basement membrane
Procedure: Referring to FIG. 35 for example, to assess the ability of 5-HT2A agonists and antagonists to inhibit capillary-like endothelial tube formation, human microvascular endothelial cells were seeded into geltrex basement membrane and overlaid with endothelial growth medium containing vascular endothelial growth factor (VEGF) and the indicated drugs. Both 5HT2A agonists and antagonists disrupted formation of endothelial tube networks, the formation of branching, complex capillary structures, and interconnectivity of capillary tubes.

[4] = system: TNFα-induced inflammatory gene and protein expression; settings: intraperitoneal, doses up to 30-fold below the CNS behaviorally-active threshold dose; aorta and intestine; cited from earlier work
HSV-1 = type: cell-based, mice; settings: 500 nM; for HSV-1 reactivation and amount of infectious virus shed from latent neurons (PFU/ml/TG): relative to mock/buffer control, 10 days
asthma in a rat model = assay: Rat model of asthma (OVA); type: in vivo; settings: OVA (ovalbumin) allergen
Excerpt: OVA is ovalbumin, a frequently used allergen that induces robust, allergic pulmonary inflammation in laboratory rodents.

| Structure (SMILES) | signs of disease, including stromal opacity and corneal neovascularization (HSV-1 RE) | weight loss associated with HSV-1 ocular infection (HSV-1 RE) | # Deceased (HSV-1 RE) | # Eyes showing signs of disease (HSV-1 RE) | Clinically clear eyes (HSV-1 RE) | stromal opacity score (HSV-1 RE) | clinical scores (slit lamp score, corneal opacity, neovascularization) (HSV-1 RE) | vascular-like tubular growth from HMEC spheroids [1] | blood vessel sprouting, branching and formation from aortic rings [2] | VEGF-mediated human vascular endothelium tubule formation [3] | further results |
| --- | --- | --- | --- | --- | --- | --- | --- | --- | --- | --- | --- |
| O=c1[nH]c(=O)n([C@H]2C[C@H](O)[C@@H](CO)O2)cc1C(F)(F)F [1% TFT, trifluorothymidine, reference compound] | reduced signs of disease | experienced weight loss associated with HSV-1 ocular infections | 0/5 | 7/10 | 0/10 | markedly increased opacity score | initially controlled ocular disease development relative to control BSS treated eyes | – | – | – | ocular histology (H&E, central cornea) (HSV-1 RE; listed as TFT): immune cell infiltration, thickening of the stroma, neovascularization, and disruption of the corneal epithelial layers |
| COc1cc(CCN)c(OC)cc1I [2CI, 2-(4-Iodo-2,5-dimethoxyphenyl)ethan-1-amine] | – | – | – | – | – | – | – | abrogated formation of vascular-like tubular growth | – | – | – |
| O=C(c1ccc(F)cc1)C1CCN(CCCCc2ccccc2)CC1 [4F4PP, reference compound] | – | – | – | – | – | – | – | – | inhibit VEGF-mediated neovascularization from aortic rings | inhibit VEGF-mediated human vascular endothelium tubule formation | – |
| COc1cc(C[C@@H](C)N)c(OC)cc1I [(R)-DOI, (R)-1-(2,5-dimethoxy-4-iodophenyl)-2-aminopropane] | reduced signs of disease | do not experience significant weight loss | 0/5 | 3/10* | 6/10 | increase in stromal opacity was muted | reduced slit lamp scores, corneal opacity and neovascularization | abrogated formation of vascular-like tubular growth | inhibit VEGF-mediated neovascularization from aortic rings; also recorded: inhibited blood vessel sprouting, branching and formation | inhibit VEGF-mediated human vascular endothelium tubule formation | TNFα-induced inflammatory gene and protein expression [4]: potently inhibits TNFα-induced inflammatory gene and protein expression; concentration at which the inhibitory effects began to no longer be as effective ([2]; neovascularization, sprouting, branching, networking): 10 nM; disease relative to control BSS treatment (HSV-1 RE; after day 8, chronic immuno-pathology): significantly reduced disease relative to control BSS treatment; eyes exhibiting complete clinical resolution (HSV-1 RE; by day 15, drops topically applied for 7 days post infection): 60%; corneal neovascularization (HSV-1 RE; compared to control BSS or TFT treated eyes): decreased development of corneal neovascularization; ocular histology (H&E, central cornea) (HSV-1 RE): markedly less disease presentation in all eyes examined; also recorded: most similar to uninfected eyes; ocular histology (H&E, central cornea) (HSV-1 RE; listed as DOI): normal ocular morphology with an absence of clinical signs of ocular disease; clinical scores (slit lamp score, corneal opacity, neovascularization) (HSV-1 RE; listed as DOI): suppressed development of all clinically scored parameters; delay in reactivation of HSV-1 from TGs (HSV-1; relative to mock): 2 fold; HSV-1 reactivation and amount of infectious virus shed from latent neurons (PFU/ml/TG) (HSV-1): inhibits HSV-1 reactivation from latent neurons; also recorded: significantly inhibited the number of reactivating TGs and the amount of infectious virus shed from neurons; HSV-1 reactivation and amount of infectious virus shed from latent neurons (PFU/ml/TG) (HSV-1; listed as DOI): significantly inhibited the degree of reactivation and amount of infectious virus shed from latent neurons |
| CCN(CC)C(=O)[C@@H]1C=C2c3cccc4[nH]cc(c34)C[C@H]2N(C)C1 [LSD] | – | – | – | – | – | – | – | – | – | – | symptoms of asthma (asthma in a rat model): can prevent symptoms of asthma |
| NCCc1c[nH]c2ccc(O)cc12 [serotonin, 5-hydroxytryptamine] | – | – | – | – | – | – | – | induces vascularization-like replication and tubule growth | – | – | – |
